Reference: patent US4570005A, “Process for the preparation of 2-arylpropyl ether or thioether derivatives” (priority 1980, dated 1986)
Converted amounts (≈) assume the structure as drawn.

Assays:
male mice = assay: Test 9: Toxicity Test (acute oral toxicity, mice); settings: oral; corn oil; male mice; 7 days
Description: (§1) A predetermined amount of a solution or suspension of a test compound in corn oil was orally administered to male mice having a body weight of 19 to 23 g (0.2 ml per 10 g of the body weight). After 7 days, the number of killed mice was counted and the influences on the mice were examined.

two-spotted spider mite = assay: Test 6: Effect on Two-Spotted Spider mite Adults; format: in vivo; settings: 100 ppm, adults, 24 hours, 25° C; for mortality at 100 ppm: Tetranychus urticae, read-out: Mortality (%)
Description: To a mixture of 20 parts of the compound of the present invention and 20 parts of Sorpol SM-200 (registered tradename for the product supplied by Toho Chemical Industrial Co., Ltd.) was added 60 parts of xylol, and the mixture was suffciently blended. The obtained emulsifiable concentrate was diluted at a predetermined concentration with distilled water, and the obtained dilution was used.
A kidney bean leaf disc perforated with a cork borer (15 mm in diameter) was placed on water-impregnated absorbent cotton (2 cm×2 cm), and 10 adults of two-spotted spider mite were set free. A chemical dilution having a concentration of 100 ppm was applied with an applicator in an amount of 3 ml.
The leaf disc-placed absorbent cotton was placed in a thermostat chamber maintained at 25° C. After 24 hours, the number of killed adults was counted and the mortality was calculated. The test was made on three leaf discs and the average value was calculated.

Test 8: Fish Toxicity = format: in vivo; settings: carp, water; concentration at which 1/2 of the test fishes were killed within 48 hours; read-out: Fish Toxicity, TLm48
Description: A water tank having a width of 60 cm, a length of 30 cm and a height of 40 cm was filled with water, and 10 yearling carps having a body length of about 5 cm were set free in the tank and adapted to the environment in the tank. A test compound was applied so that the concentration in water was 10, 1 or 0.1 ppm. After 48 hours, the numbers of killed and living carps were counted and the influences on the fishes were examined.

[1] = Test 9: Toxicity Test (acute oral toxicity, mice); settings: mouse, in vivo, po
Description: as §1

[2] = tested on: resistant green rice leafhopper (collected at Nakagawara); assay: Test 3: Effect on Resistant Green Rice Leafhopper (collected at Nakagawara); format: in vivo, Nephotettix cincticeps Uhler (Green rice leafhopper); settings: Nephotettix cincticeps, 24 h, read-out: Mortality (%), Green Rice Leafhopper Collected at Nakagawara
Method in brief: (§2)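 Emulsifiable concentrate diluted to 100 or 20 ppm was sprayed, 3 ml per pot, onto hydroponic rice seedlings at 2–3 leaves. After air-drying, 10 female adults of the Nakagawara (resistant) or Chigasaki (sensitive) strain were released per caged pot. Mortality was counted at 24 h and averaged over three pots.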

green peach aphid = assay: Test 5: Effect on Green Peach Aphid; format: in vivo; settings: Myzus persicae; 100 ppm; mortality class; 24 hours; read-out: Insecticidal Activity
Method in brief: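 Eggplant seedlings with 3–4 leaves were infested with aphids and sprayed with a 100 ppm aqueous dilution of an emulsifiable concentrate, then kept in a glasshouse. Living insects were counted after 24 h. Mortality is averaged over three pots and graded A (>95%), B (80–95%), C (50–80%) or D (<50%).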

[3] = tested on: sensitive green rice leafhopper (collected at Chigasaki); assay: whole plant or invertebrate; format: in vivo; settings: Nephotettix cincticeps, sensitive female adults, 24 hours, read-out: Mortality (%), Green Rice Leafhopper Collected at Chigasaki
Method in brief: as §2

German cockroach = assay: Test 7: Effect on German Cockroach; format: in vivo; settings: Blattella germanica, male adults, agonized and killed after 24 hours, read-out: Mortality (%); for mortality at 10 mg/m2: 10 mg/m^2; for mortality at 50 mg/m2: 50 mg/m^2
Method in brief: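 Petri dish floors were treated with 50 or 10 mg/m2 of compound (diluted emulsifiable concentrate) and air-dried. Ten male adult German cockroaches per dish were held at 25° C. Agonized and dead insects were counted after 24 hours, averaging two dishes.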

tobacco cutworm [4] = assay: Test 2: Tobacco Cutworm Larva Dipping Test, mortality after 24 hours; format: in vivo; settings: 24 hours
Method in brief: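 Second- and fifth-instar larvae dipped 5 s in a water dilution of an emulsifiable concentrate at 100 or 20 ppm, blotted, then held on artificial diet at 25° C. Dead and living larvae counted after 24 hours; mortality averaged over three cups.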

diamond back moth = assay: Test 4: Effect on Diamond Back Moth; format: in vivo; settings: Plutella, third-instar larvae, 24 hours, read-out: Mortality (%)
Method in brief: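 Compound formulated as an emulsifiable concentrate, diluted in water to 100 or 20 ppm and sprayed at 3 ml per cup onto cabbage leaves holding 10 third-instar larvae. Mortality counted after 24 hours; mean of three cups.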

tobacco cutworm [5] = assay: Test 1: Effect on Tobacco Cutworm (leaf immersion), mortality after 24 hours; format: in vivo; settings: second-instar larvae, 25° C
Method in brief: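 Sweet-potato leaves dipped 10 s in emulsifiable concentrate diluted to 100 or 20 ppm, air-dried, then exposed to second-instar larvae at 25 °C. Mortality counted after 24 h, averaged over three cups.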

plants of Solanacede = settings: Fenvalerate; general statement; cited from earlier work
[6] = fifth-instar larvae, read-out: Motality (%), Fifth-Instar Larvae
[7] = second-instar larvae, read-out: Motality (%), Second-Instar Larvae

| Compound | LC50 at 48 h (Test 8: Fish Toxicity) | LD50 at 168 h [1] | mortality at 20 ppm [2] | mortality at 100 ppm [2] | mortality at 100 ppm (green peach aphid) | mortality at 20 ppm [3] | mortality at 100 ppm [3] | mortality at 10 mg/m2 (German cockroach) | mortality at 50 mg/m2 (German cockroach) | mortality at 100 ppm (two-spotted spider mite) | mortality at 20 ppm (tobacco cutworm [4]; [6]) | mortality at 20 ppm (tobacco cutworm [4]; [7]) | mortality at 100 ppm (tobacco cutworm [4]; [6]) | mortality at 100 ppm (tobacco cutworm [4]; [7]) | mortality at 20 ppm (diamond back moth) | mortality at 100 ppm (diamond back moth) | mortality at 20 ppm (tobacco cutworm [5]) | mortality at 100 ppm (tobacco cutworm [5]) | other results |
| --- | --- | --- | --- | --- | --- | --- | --- | --- | --- | --- | --- | --- | --- | --- | --- | --- | --- | --- | --- |
| Pyrethrin [Comparative Compound (c), reference compound] | – | – | – | – | – | – | – | – | – | – | – | – | – | – | – | – | – | – | Acute Toxicity at Oral Administration, LD-50 (male mice): 340 mg/kg; Mortality (%) (two-spotted spider mite): 0% |
| COc1ccc(Oc2cccc(COCC(C)(C)c3ccc(Cl)c(Cl)c3)c2)cc1 [Compound 41, 3-(4-methoxyphenoxy)benzyl 2-(3,4-dichlorophenyl)-2-methylpropyl ether] | > 10 µg/mL | > 500 mg/kg | 100% | 100% | > 95% | 100% | 100% | 100% | 100% | 100% | – | – | – | – | – | – | – | – | – |
| CCC(C)(COCc1cccc(Oc2ccccc2)c1)c1ccc(Cl)cc1 (stereo not drawn) [Compound 50, 3-Phenoxybenzyl 2-(4-chlorophenyl)-2-ethylpropyl ether] | > 10 µg/mL | > 500 mg/kg | 90% | 100% | > 95% | 80% | 100% | 100% | 100% | 100% | 90% | 100% | 100% | 100% | 100% | 100% | 100% | 100% | – |
| CC(C)(CSCc1cccc(Oc2ccccc2)c1)c1ccc(Cl)cc1 [Compound 20, 3-Phenoxybenzyl 2-(4-chlorophenyl)-2-methylpropyl thioether] | > 10 µg/mL | > 500 mg/kg | 80% | 100% | > 95% | 50% | 100% | – | – | 100% | 80% | 90% | 100% | 100% | 100% | 100% | 100% | 100% | – |
| COc1ccc(C(C)(C)COCc2cccc(Oc3ccccc3)c2)cc1 [Compound 1, 3-Phenoxybenzyl 2-(4-methoxyphenyl)-2-methyl propyl ether] | > 10 µg/mL | > 500 mg/kg | 100% | 100% | 80 to 95% | 100% | 100% | 100% | 100% | 100% | – | – | – | – | – | – | – | – | – |
| CC(C)(COCc1cccc(Oc2ccccc2)c1)c1ccc2c(c1)OCO2 [Compound 7, 3-Phenoxybenzyl 2-(3,4-methylenedioxyphenyl)-2-methylpropyl ether] | > 10 µg/mL | > 500 mg/kg | 100% | 100% | > 95% | 90% | 100% | 100% | 100% | 100% | 50% | 60% | 100% | 100% | 80% | 100% | 80% | 100% | – |
| CC(C)(COCc1cccc(Oc2ccccc2)c1)c1ccc(Cl)c(Cl)c1 [Compound 48, 3-Phenoxybenzyl 2-(3,4-dichlorophenyl)-2-methylpropyl ether] | > 10 µg/mL | > 500 mg/kg | 100% | 100% | > 95% | 100% | 100% | 100% | 100% | 100% | 60% | 70% | 70% | 90% | 100% | 100% | 80% | 100% | – |
| CC(C)(COCc1cccc(Oc2ccc(F)cc2)c1)c1ccc(Cl)cc1 [Compound 6, 3-(4-Fluorophenoxy)benzyl 2-(4-chlorophenyl)-2-methylpropyl ether] | > 10 µg/mL | > 500 mg/kg | 100% | 100% | > 95% | 100% | 100% | 100% | 100% | 100% | 100% | 100% | 100% | 100% | 100% | 100% | 100% | 100% | – |
| CC(C)C(C(=O)OC(C#N)c1cccc(Oc2ccccc2)c1)c1ccc(Cl)cc1 (stereo not drawn) [Fenvalerate] | – | – | – | – | – | – | – | – | – | – | – | – | – | – | – | – | – | – | phyto-toxicity to plants of Solanacede (plants of Solanacede): observed |
| CC(C)(COCc1cccc(Oc2ccccc2)c1)c1ccc(Cl)cc1 [Compound 49, 3-Phenoxybenzyl 2-(4-chlorophenyl)-2-methylpropyl ether] | > 10 µg/mL | > 500 mg/kg | 100% | 100% | > 95% | 100% | 100% | 100% | 100% | 100% | 100% | 100% | 100% | 100% | 100% | 100% | 100% | 100% | – |
| CC(C)(COCc1cccc(Oc2ccc(F)cc2)c1)c1ccc(OC(F)F)cc1 [Compound 11, 3-(4-Fluorophenoxy)benzyl 2-(4-difluoromethoxyphenyl)-2-methylpropyl ether] | 0.01 to 0.05 µg/mL (≈ 0.024 to 0.12 µM) | > 500 mg/kg | 100% | 100% | > 95% | 100% | 100% | 100% | 100% | 100% | 70% | 90% | 100% | 100% | 90% | 100% | 100% | 100% | – |
